Results from patent US4987129A, “Cephalosporin derivatives” (priority 1987, dated 1991).
≈ marks a conversion by molar mass, not a printed value. Counter-ions that a name gives are not always drawn. Like-named read-outs stand apart in the source and are kept apart here.

How the values were obtained:
[1] = tested on: Staphylococcus aureus Smith; assay: minimum inhibitory concentration (MIC), standard method of Japan Society of Chemotherapy; type: cell-based; details: Tables 2A, 2B
Procedure: (§1) The minimum inhibitory concentration (MIC) of the compounds obtained in the above Examples were measured according to the standard method of Japan Society of Chemotherapy.

[2] = tested on: Enterobacter cloacae IV25; assay: minimum inhibitory concentration (MIC); type: cell-based
Procedure: as §1

Proteus vulgris GN7919 = assay: minimum inhibitory concentration (MIC); type: cell-based
Procedure: as §1

[3] = tested on: Enterobacter cloacae 908RN; assay: minimum inhibitory concentration (MIC); type: cell-based; details: Enterobacter cloacae 908RN
Procedure: as §1

Escherichia coli GN5482 = assay: minimum inhibitory concentration (MIC); type: cell-based; details: Tables 2A, 2B
Procedure: as §1

[4] = tested on: Pseudomonas aeruginosa GN10362; assay: minimum inhibitory concentration (MIC); type: cell-based; details: Tables 2A, 2B
Procedure: as §1

[5] = tested on: Citrobacter freundii GN7391; assay: minimum inhibitory concentration (MIC); type: cell-based
Procedure: as §1

[6] = tested on: Citrobacter freundii 1R527; assay: minimum inhibitory concentration (MIC); type: cell-based
Procedure: as §1

[7] = tested on: Pseudomonas aeruginosa 4au542; assay: minimum inhibitory concentration (MIC); type: cell-based; details: Tables 2A, 2B
Procedure: as §1

[8] = tested on: Citrobacter freundii 1R523; assay: minimum inhibitory concentration (MIC); type: cell-based
Procedure: as §1

Escherichia coli ML4704 = assay: minimum inhibitory concentration (MIC); type: cell-based; details: Escherichia coli ML4704; Tables 2A, 2B; read-out: MIC
Procedure: as §1

[9] = tested on: Serratia marcescens GN10857; assay: minimum inhibitory concentration (MIC); type: cell-based; details: Tables 2A, 2B
Procedure: as §1

[10] = tested on: Pseudomonas maltophilia OF247; assay: minimum inhibitory concentration (MIC); type: cell-based; details: Stenotrophomonas maltophilia, Tables 2A, 2B
Procedure: as §1

[11] = tested on: Klebsiella pneumoniae 4at521; assay: minimum inhibitory concentration (MIC); type: cell-based; details: Tables 2A, 2B
Procedure: as §1

[12] = tested on: Citrobacter freundii 1R526; assay: minimum inhibitory concentration (MIC); type: cell-based
Procedure: as §1

[13] = tested on: Citrobacter freundii GM7391; assay: minimum inhibitory concentration (MIC); type: cell-based
Procedure: as §1

[14] = tested on: Pseudomonas aeruginosa 5D58-1; assay: minimum inhibitory concentration (MIC); type: cell-based; details: 5D581, Tables 2A, 2B
Procedure: as §1

[15] = tested on: Citrobacter freundii 1U592; assay: minimum inhibitory concentration (MIC); type: cell-based
Procedure: as §1

[16] = tested on: Enterobacter cloacae GN7471; assay: minimum inhibitory concentration (MIC); type: cell-based
Procedure: as §1

[17] = tested on: Citrobacter freundii 1R524; assay: minimum inhibitory concentration (MIC); type: cell-based
Procedure: as §1

[18] = tested on: Citrobacter freundii 1U589; assay: minimum inhibitory concentration (MIC); type: cell-based
Procedure: as §1

[19] = tested on: Pseudomonas cepacia OF189; assay: minimum inhibitory concentration (MIC); type: cell-based; details: Burkholderia cepacia, Tables 2A, 2B
Procedure: as §1

[20] = tested on: Citrobacter freundii 5D60-1; assay: minimum inhibitory concentration (MIC); type: cell-based
Procedure: as §1

[21] = among existing cephalosporins; known; cited from earlier work
in vivo = assay: in vivo; design: species or system cynomolgus monkeys; details: cynomolgus monkey, 20 mg/kg
Procedure: 20 mg/kg of compound obtained in the above Example 18 was administered parenterally to cynomolgus monkeys and the half-life in blood was measured.
The concentration of the compound was measured according to HPLC method. Novapack C18 or Microbondapack C18 (both trade name, produced by Waters Co.) was used for analysis. Further, cefpiramide was used as a control drug.

[22] = tested on: Staphylococcus aureus IAA498; assay: minimum inhibitory concentration (MIC); type: cell-based; details: Tables 2A, 2B
Procedure: as §1

[23] = tested on: Enterobacter cloacae IY247; assay: minimum inhibitory concentration (MIC); type: cell-based
Procedure: as §1

[24] = tested on: Enterobacter cloacae 5D83-2; assay: minimum inhibitory concentration (MIC); type: cell-based; details: 5D832
Procedure: as §1

[25] = tested on: Enterobacter cloacae 5D52-2; assay: minimum inhibitory concentration (MIC); type: cell-based; details: 5D522
Procedure: as §1

**Q.** For `CC(C)(O/N=C(\C(=O)N[C@@H]1C(=O)N2C(C(=O)[O-])=C(C[n+]3ccccc3)CS[C@H]12)c1csc(N)n1)C(=O)O` [CAZ, ceftazidime, reference compound], which MIC [1] is on record?
**A.** Its MIC is 6.25 µg/mL (≈ 11.4 µM).

**Q.** And the MIC [2]?
**A.** Its MIC is 50 µg/mL (≈ 91.5 µM).

**Q.** And the MIC (Proteus vulgris GN7919)?
**A.** The MIC was 1.56 µg/mL (≈ 2.85 µM).

**Q.** What about the MIC ([3]; Table 3, clinical isolates resistant to ceftazidime) of the same molecule?
**A.** The MIC was > 100 µg/mL.

**Q.** And the MIC ([3]; Tables 2A, 2B)?
**A.** Its MIC is 100 µg/mL (≈ 183 µM).

**Q.** What about the MIC (Escherichia coli GN5482) of the same molecule?
**A.** Its MIC is 1.56 µg/mL (≈ 2.85 µM).

**Q.** What about the MIC [4] of the same molecule?
**A.** The MIC was 1.56 µg/mL (≈ 2.85 µM).

**Q.** And the MIC ([5]; Citrobacter freundii, GN7391)?
**A.** Its MIC is > 100 µg/mL.

**Q.** And the MIC [6]?
**A.** Its MIC is 25 µg/mL (≈ 45.7 µM).

**Q.** And the MIC [7]?
**A.** The MIC was 3.13 µg/mL (≈ 5.73 µM).

**Q.** What about the MIC [8] of the same molecule?
**A.** The MIC was 25 µg/mL (≈ 45.7 µM).

**Q.** And the MIC (Escherichia coli ML4704)?
**A.** The MIC was 0.05 µg/mL (≈ 0.0915 µM).

**Q.** What about the MIC [9] of the same molecule?
**A.** Its MIC is 3.13 µg/mL (≈ 5.73 µM).

**Q.** And the MIC [10]?
**A.** The MIC was 3.13 µg/mL (≈ 5.73 µM).

**Q.** And the MIC [11]?
**A.** Its MIC is 0.1 µg/mL (≈ 0.183 µM).

**Q.** What about the MIC [12] of the same molecule?
**A.** The MIC was 25 µg/mL (≈ 45.7 µM).

**Q.** And the MIC [13]?
**A.** The MIC was > 100 µg/mL.

**Q.** What about the MIC [14] of the same molecule?
**A.** The MIC was 1.56 µg/mL (≈ 2.85 µM).

**Q.** What about the MIC [15] of the same molecule?
**A.** Its MIC is 100 µg/mL (≈ 183 µM).

**Q.** And the MIC ([16]; Enterobacter cloacae, GN7471)?
**A.** Its MIC is 3.13 µg/mL (≈ 5.73 µM).

**Q.** What about the MIC [17] of the same molecule?
**A.** Its MIC is 25 µg/mL (≈ 45.7 µM).

**Q.** And the MIC [18]?
**A.** Its MIC is 100 µg/mL (≈ 183 µM).

**Q.** And the MIC [19]?
**A.** The MIC was 6.25 µg/mL (≈ 11.4 µM).

**Q.** And the MIC ([20]; 5D601)?
**A.** Its MIC is > 100 µg/mL.

**Q.** Which half-life in blood [21] does the source give for `Cc1cc(O)c(C(=O)N[C@@H](C(=O)N[C@@H]2C(=O)N3C(C(=O)O)=C(CSc4nnnn4C)CS[C@H]23)c2ccc(O)cc2)cn1` [Cefpiramide, cefpiramide, reference compound] here?
**A.** Its half-life in blood is “long half-life in blood”.

**Q.** What about the half-life (in vivo) of the same molecule?
**A.** The half-life was 2.5 h.

**Q.** For `Cc1cc(SCC2=C(C(=O)O)N3C(=O)C(NC(=O)C(=NOC(C)(C)C(=O)NNC(=O)c4ccc(O)c(O)c4)c4csc(N)n4)C3SC2)n2nc(CO)nc2n1` (stereo not shown) [Example 18, 7-{2-[2-amino-1,3-thiazol-4-yl]-2-[1-(3-(3,4-dihydroxybenzoyl)carbazoyl)-1-methylethoxyimino]acetamide}-3-[(2-hydroxymethyl-5-methyl-s-triazolo[1,5-a]pyrimidin-7-yl)thiomethyl]-3-cephem-4-carboxylic acid.sodium salt], which MIC [1] is on record?
**A.** Its MIC is 1.56 µg/mL.

**Q.** What about the half-life (in vivo) of the same molecule?
**A.** The half-life was 2.6 h.

**Q.** And the MIC ([2]; read-out: MIC)?
**A.** The MIC was 1.56 µg/mL.

**Q.** And the MIC [22]?
**A.** The MIC was 6.25 µg/mL.

**Q.** What about the MIC (Proteus vulgris GN7919; Proteus vulgris GN7919, Tables 2A, 2B, read-out: MIC) of the same molecule?
**A.** The MIC was 1.56 µg/mL.

**Q.** What about the MIC ([3]; Table 3, clinical isolates resistant to ceftazidime, read-out: MIC) of the same molecule?
**A.** Its MIC is 12.5 µg/mL.

**Q.** What about the MIC ([3]; Tables 2A, 2B, read-out: MIC) of the same molecule?
**A.** The MIC was 6.25 µg/mL.

**Q.** What about the MIC (Escherichia coli GN5482) of the same molecule?
**A.** Its MIC is 0.025 µg/mL.

**Q.** And the MIC [4]?
**A.** The MIC was 0.05 µg/mL.

**Q.** What about the MIC ([5]; Citrobacter freundii GN7391, Tables 2A, 2B, read-out: MIC) of the same molecule?
**A.** The MIC was 12.5 µg/mL.

**Q.** What about the MIC ([6]; read-out: MIC) of the same molecule?
**A.** Its MIC is 0.2 µg/mL.

**Q.** What about the MIC [23] of the same molecule?
**A.** Its MIC is 6.25 µg/mL.

**Q.** What about the MIC [7] of the same molecule?
**A.** The MIC was 0.2 µg/mL.

**Q.** What about the MIC ([8]; read-out: MIC) of the same molecule?
**A.** Its MIC is 0.78 µg/mL.

**Q.** And the MIC (Escherichia coli ML4704)?
**A.** The MIC was 0.012 µg/mL.

**Q.** And the MIC [24]?
**A.** The MIC was 0.78 µg/mL.

**Q.** What about the MIC [9] of the same molecule?
**A.** Its MIC is 0.78 µg/mL.

**Q.** What about the MIC [10] of the same molecule?
**A.** The MIC was 0.39 µg/mL.

**Q.** What about the MIC [11] of the same molecule?
**A.** The MIC was 0.012 µg/mL.

**Q.** What about the MIC ([12]; read-out: MIC) of the same molecule?
**A.** The MIC was 0.39 µg/mL.

**Q.** What about the MIC [25] of the same molecule?
**A.** The MIC was 0.39 µg/mL.

**Q.** And the MIC ([13]; read-out: MIC)?
**A.** The MIC was 6.25 µg/mL.

**Q.** What about the MIC [14] of the same molecule?
**A.** The MIC was 0.05 µg/mL.

**Q.** What about the MIC ([15]; read-out: MIC) of the same molecule?
**A.** The MIC was 25 µg/mL.

**Q.** And the MIC ([16]; Enterobacter cloacae GN7471, Tables 2A, 2B, read-out: MIC)?
**A.** Its MIC is 6.25 µg/mL.

**Q.** And the MIC ([17]; read-out: MIC)?
**A.** The MIC was 0.39 µg/mL.

**Q.** What about the MIC ([18]; read-out: MIC) of the same molecule?
**A.** Its MIC is 1.56 µg/mL.

**Q.** What about the MIC [19] of the same molecule?
**A.** Its MIC is 0.025 µg/mL.

**Q.** What about the MIC ([20]; 5D601, read-out: MIC) of the same molecule?
**A.** The MIC was 1.56 µg/mL.
